Series [1] relates to Liver microsome. Put plainly: Drug metabolism in rat liver microsomes incubated with 10 uM ceratamine B for 60 mins assessed as metabolite level in presence of 1 mM NADPH at pH 7.4 and 37 degC by Quadrupole-time-of-flight mass spectrometry. The settings on record: pH 7.4, 1 h. The series is classed as ADME.
Series [2] relates to Liver microsome. Put plainly: Drug metabolism in rat liver microsomes incubated with 10 uM ceratamine A for 60 mins assessed as metabolite level in presence of 1 mM NADPH at pH 7.4 and 37 degC by Quadrupole-time-of-flight mass spectrometry. The series is classed as ADME. As to conditions: pH 7.4, 1 h.
Series [3] in a line: Retention time by reverse phase HPLC-UV chromatography. The series is classed as physicochemical.
Series [4] relates to Liver microsome. Put plainly: Drug metabolism in rat liver microsomes incubated with 10 uM ceratamine B for 60 mins assessed as metabolite formation in presence of 1 mM NADPH at pH 7.4 and 37 degC by reverse phase HPLC-UV chromatography. It counts as ADME. The settings on record: pH 7.4, 1 h. On the technique in general: Liver microsomes are vesicles of endoplasmic reticulum, rich in cytochrome P450 enzymes.

In series [5] the test system is Liver microsome. Nature of the series: Drug metabolism in rat liver microsomes incubated with 10 uM ceratamine A for 60 mins assessed as metabolite formation in presence of 1 mM NADPH at pH 7.4 and 37 degC by reverse phase HPLC-UV chromatography. The series is classed as ADME. The settings on record: pH 7.4, 1 h.

Consider `CNc1nc2cc[nH]c(=O)c(Cc3cc(Br)c(O)c(Br)c3)c-2n1`, for which the Drug metabolism entry in the series with Liver microsome [1] and with Liver microsome [2] was “metabolite_detected” throughout. For the same compound, the Retention_time in series [3] came out at 20.1 min.

`COc1c(Br)cc(Cc2c3nc(N)nc-3cc[nH]c2=O)cc1Br`: the Drug metabolism result in the series with Liver microsome [1] and in the series with Liver microsome [2] was “metabolite_detected” throughout. For the same compound, the Retention_time in series [3] is listed as 29.6 min.

In the case of `CNc1nc2cc[nH]c(=O)c(Cc3cc(Br)c(OC)c(Br)c3)c-2n1`, the Drug metabolism entry in the series with Liver microsome [4] was “metabolite_detected”.

Consider `CNc1nc2ccn(C)c(=O)c(Cc3cc(Br)c(OC)c(Br)c3)c-2n1` [CERATAMINE A], for which the Drug metabolism entry with Liver microsome [5] is “metabolite_detected”.

The values above are taken from ChEMBL document CHEMBL3351870, “Structure elucidation of phase I metabolites of the microtubule perturbagens: ceratamines A and B” (J Nat Prod, 2014).
